Measured values published in patent US20240400571A1, “5,6 UNSATURATED BICYCLIC HETEROCYLES USEFUL AS INHIBITORS OF NOD-LIKE RECEPTOR PROTEIN 3” (Merck Sharp & Dohme LLC, priority 2023, published 2024).

Target: T1, NLRP3 inflammasome (Homo sapiens, UniProt Q96P20)
T1 construct: host or cells: THP-1 human monocytic cells, treated with PMA and stimulated with gramicidin
Assay: ASC-SPECK formation in THP-1 cells after gramicidin stimulation (NLRP3 inflammasome activation)
Type: cell-based
Settings: PMA-treated human monocytic THP-1 cells; compound 1 h before 12.5 μg/ml gramicidin, 3-hour treatment; ASC SPECK imaging; read-out: EC50 values (nM) for Examples that inhibit NLRP3 inflammasome activation
Experimental: The ability of compounds to inhibit NLRP3 inflammasome activation was determined in vitro by monitoring formation of the ASC-SPECK in human monocytic THP-1 cells after stimulation. THP-1 cells (ATCC catalog #TIB-202) were maintained in complete growth media containing Roswell Park Memorial Institute RPMI (ATCC catalog #30-2001), 10% heat inactivated fetal bovine serum, 1× penicillin/streptomycin and 0.05 mM 2-mercaptoethanol. At the start of the assay, undifferentiated THP-1 cells were plated at a density of 20,000 cells per well in a 384-well plate (Poly-D-lysine coated Cell Carrier Ultra microplate, Perkin Elmer catalog #6057500) in complete growth media supplemented with 10 ng/ml phorbol 12-myristate 13-acetate (PMA; Sigma catalog #P8139), and then incubated overnight. The next day, media was replaced with assay media [RPMI (Gibco catalog #11875-093), 0.01% bovine serum albumin (BSA)]. Compounds were serially diluted in DMSO and then added to wells one hour prior to the addition of 12.5 μg/ml Gramicidin (Enzo Lifescience, catalog #ALX-350-233-M005). All incubations were carried out at 37° C. (5% CO2/95% air). Following a 3-hour treatment with gramicidin, cells are fixed with 4% paraformaldehyde and stored at 4° C. until immunofluorescence staining.
Immunofluorescence staining: Anti-ASC antibody (MBL catalog #D086-3) was desalted and labeled with Alexa 488 antibody labeling kit (Thermo catalog #A20181) prior to use as described below. After fixation, the following steps were carried out at room temperature. Cells were first permeabilized with 0.3% Triton X-100 in phosphate-buffered saline (PBS) for 15 minutes and then incubated in blocking buffer containing 5% goat serum, 0.3% tween-20 and 0.03% sodium azide in PBS for 1 hour. Cells were stained with a mixture of ASC-Alexa 488 antibody (diluted 1:200 in blocking buffer) and nuclear stain DRAQ5 (1:5000 in blocking buffer, Thermo catalog #62251) in blocking buffer for 1 hour. Following a wash with 0.3% Tween-20 in PBS, plates were imaged with an Opera Phenix High Content Screening System. The number of DRAQ5 positive cells containing ASC SPECKS were quantified in each well.
Data analysis: EC50 values were calculated by standard curve-fitting analysis using an internally developed program in TIBCO Spotfire software.

T1 sequence (Q96P20 whole entry): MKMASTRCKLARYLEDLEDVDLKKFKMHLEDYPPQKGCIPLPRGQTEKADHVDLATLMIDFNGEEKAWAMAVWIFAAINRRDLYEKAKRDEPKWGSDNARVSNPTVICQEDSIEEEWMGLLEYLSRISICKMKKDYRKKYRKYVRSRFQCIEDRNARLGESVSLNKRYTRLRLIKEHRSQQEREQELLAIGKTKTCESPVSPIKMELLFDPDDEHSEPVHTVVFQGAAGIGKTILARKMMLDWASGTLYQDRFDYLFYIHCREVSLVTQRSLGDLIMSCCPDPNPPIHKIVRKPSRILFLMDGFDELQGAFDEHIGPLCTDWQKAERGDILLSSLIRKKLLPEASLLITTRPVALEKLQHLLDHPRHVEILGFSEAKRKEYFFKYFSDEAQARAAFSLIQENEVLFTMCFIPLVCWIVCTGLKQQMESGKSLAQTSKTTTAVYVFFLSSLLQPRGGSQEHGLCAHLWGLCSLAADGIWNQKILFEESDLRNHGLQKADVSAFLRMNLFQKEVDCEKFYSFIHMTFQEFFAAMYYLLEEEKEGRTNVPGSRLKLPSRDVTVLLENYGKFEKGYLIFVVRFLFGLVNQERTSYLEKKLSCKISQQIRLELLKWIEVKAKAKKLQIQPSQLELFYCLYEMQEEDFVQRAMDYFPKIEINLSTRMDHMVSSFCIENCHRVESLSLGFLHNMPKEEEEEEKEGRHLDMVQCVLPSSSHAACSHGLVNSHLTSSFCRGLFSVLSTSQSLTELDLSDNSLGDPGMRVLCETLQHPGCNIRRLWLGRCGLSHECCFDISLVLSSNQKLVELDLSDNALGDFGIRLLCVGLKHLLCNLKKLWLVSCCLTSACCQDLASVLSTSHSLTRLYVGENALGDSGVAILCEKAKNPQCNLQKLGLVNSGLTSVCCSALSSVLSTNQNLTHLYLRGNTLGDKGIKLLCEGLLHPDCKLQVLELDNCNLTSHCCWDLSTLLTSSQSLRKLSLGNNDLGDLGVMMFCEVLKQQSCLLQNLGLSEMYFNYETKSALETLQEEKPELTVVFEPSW

Compound | EC50 [nM]
Cc1c(-c2ccc3c(c2O)CCC3)nnc2c1ncn2[C@@H]1CCCN(C)C1 [Example 16, (R)-5-(4-methyl-7-(1-methylpiperidin-3-yl)-7H-imidazo[4,5-c]pyridazin-3-yl)-2,3-dihydro-1H-inden-4-ol] | 23
CCN1CC[C@@H](O)[C@@H](n2cnc3c(C)c(-c4ccc(C(F)(F)F)cc4O)nnc32)C1 [Example 12, (3S,4R)-1-ethyl-3-(3-(2-hydroxy-4-(trifluoro-methyl)phenyl)-4-methyl-7H-imidazo[4,5-c]pyridazin-7-yl)piperidin-4-ol] | 103
Cc1c(-c2ccc(C(F)(F)F)cc2O)nnc2c1ncn2[C@H]1CNCC[C@H]1O [Example 6, (3S,4R)-3-(3-(2-hydroxy-4-(trifluoro-methyl)phenyl)-4-methyl-7H-imidazo[4,5-c]pyridazin-7-yl)piperidin-4-ol] | 550
Cc1c(-c2ccc3c(c2O)CC(F)(F)C3)nnc2c1ncn2[C@@H]1CCCN(C)C1 [Example 21, (R)-2,2-difluoro-5-(4-methyl-7-(1-methylpiperidin-3-yl)-7H-imidazo[4,5-c]pyridazin-3-yl)-2,3-dihydro-1H-inden-4-ol] | 996
Cc1c(-c2ccc(C(F)(F)F)cc2O)nnc2c1ncn2[C@@H]1CC[C@@H]2CC[C@H]1N2C (single isomer, unassigned) [Example 29] | 26
Cc1c(-c2ccc(Cl)cc2O)nnc2c1ncn2[C@@H]1CCCN(C)C1 [Example 17, (R)-5-chloro-2-(4-methyl-7-(1-methylpiperidin-3-yl)-7H-imidazo[4,5-c]pyridazin-3-yl)phenol] | 28
CCN1CCC[C@@H](n2cnc3c(C)c(-c4ccc(C(F)(F)F)cc4O)nnc32)C1 [Example 7, (R)-2-(7-(1-ethylpiperidin-3-yl)-4-methyl-7H-imidazo[4,5-c]pyridazin-3-yl)-5-(trifluoromethyl)phenol] | 13
Cc1c(-c2ccc(C(F)(F)F)cc2O)nnc2c1ncn2[C@@H]1CCCNC1 [Example 5, (R)-2-(4-methyl-7-(piperidin-3-yl)-7H-imidazo[4,5-c]pyridazin-3-yl)-5-(trifluoromethyl)phenol] | 143
Cc1c(-c2ccc(C(F)(F)F)cc2O)nnc2c1ncn2[C@@H]1CCCN(C)C1 [Example 10, (R)-2-(4-methyl-7-(1-methylpiperidin-3-yl)-7H-imidazo[4,5-c]pyridazin-3-yl)-5-(trifluoromethyl)phenol] | 25
CCN1CCC[C@@H](n2cnc3c(C)c(-c4ccc(Cl)cc4O)nnc32)C1 [Example 18, (R)-5-chloro-2-(7-(1-ethylpiperidin-3-yl)-4-methyl-7H-imidazo[4,5-c]pyridazin-3-yl)phenol] | 29
Cc1c(-c2c(O)cc(Cl)cc2F)nnc2c1ncn2[C@@H]1CCCN(C)C1 [Example 26, 5-chloro-3-fluoro-2-(4-methyl-7-((R)-1-methylpiperidin-3-yl)-7H-imidazo-[4,5-c]pyridazin-3-yl)phenol] | 81
CCN1CCC[C@@H](n2ccc3cc(-c4c(C)cc(C(F)(F)F)cc4O)nnc32)C1 [Example 1, (R)-2-(7-(1-ethylpiperidin-3-yl)-7H-pyrrolo[2,3-c]pyridazin-3-yl)-3-methyl-5-(trifluoromethyl)phenol] | 19
[2H]C([2H])([2H])N1CCC[C@@H](n2cnc3c(C)c(-c4ccc(C(F)(F)F)cc4O)nnc32)C1 [Example 35, (R)-2-(4-methyl-7-(1-(methyl-d3)piperidin-3-yl)-7H-imidazo[4,5-c]pyridazin-3-yl)-5-(trifluoromethyl)phenol] | 29
Cc1c(-c2ccc3sccc3c2O)nnc2c1ncn2[C@@H]1CCCN(C)C1 [Example 15, (R)-5-(4-methyl-7-(1-methylpiperidin-3-yl)-7H-imidazo[4,5-c]pyridazin-3-yl)benzo[b]thiophen-4-ol] | 61
Cc1c(-c2ccc(C(F)(F)F)cc2O)nnc2c1ncn2[C@@H]1CCCN(C(C)C)C1 [Example 22, (R)-2-(7-(1-isopropylpiperidin-3-yl)-4-methyl-7H-imidazo[4,5-c]pyridazin-3-yl)-5-(trifluoromethyl)phenol] | 20
Cc1c(-c2ccc(C(F)(F)F)cc2O)nnc2c1ncn2[C@@H]1CC[C@@H]2CC[C@H]1N2 (single isomer, unassigned) [Example 24] | 130
Cc1c(-c2ccc(C(F)(F)F)cc2O)nnc2c1nc(C)n2[C@@H]1CCCN(C)C1 [Example 14, (R)-2-(4,6-dimethyl-7-(1-methylpiperidin-3-yl)-7H-imidazo[4,5-c]pyridazin-3-yl)-5-(trifluoromethyl)phenol] | 567
CCN1[C@@H]2CC[C@H]1[C@@H](n1cnc3c(C)c(-c4ccc(C(F)(F)F)cc4O)nnc31)CC2 (single isomer, unassigned) [Example 31] | 889
Cc1c(-c2ccc(C(F)(F)F)cc2O)nnc2c1ncn2C12CCCC(N)(C1)C2 [Example 32, 2-(7-(5-aminobicyclo[3.1.1]heptan-1-yl)-4-methyl-7H-imidazo[4,5-c]pyridazin-3-yl)-5-(trifluoromethyl)phenol] | 47
CCN1[C@H]2CC[C@@H]1[C@H](n1cnc3c(C)c(-c4ccc(C(F)(F)F)cc4O)nnc31)CC2 (single isomer, unassigned) [Example 30] | 9
Cc1c(-c2ccc(C(F)(F)F)cc2O)nnc2c1ncn2[C@H]1CC[C@H]2CC[C@@H]1N2 (single isomer, unassigned) [Example 25] | 1010
Cc1c(-c2ccc3c(c2O)CCC3)nnc2c1ncn2[C@@H]1CCCNC1 [Example 19, (R)-5-(4-methyl-7-(piperidin-3-yl)-7H-imidazo[4,5-c]pyridazin-3-yl)-2,3-dihydro-1H-inden-4-ol] | 53
Cc1c(-c2ccc(C(F)(F)F)cc2O)nnc2c1ncn2[C@@H]1CCCN2CCC[C@@H]12 (single isomer, unassigned) [Example 34] | 87
Cc1c(-c2ccc(C3CC3)c(F)c2O)nnc2c1ncn2[C@@H]1CCCN(C)C1 [Example 27, (R)-3-cyclopropyl-2-fluoro-6-(4-methyl-7-(1-methylpiperidin-3-yl)-7H-imidazo-[4,5-c]pyridazin-3-yl)phenol] | 1530
Cc1ccc(-c2nnc3c(ncn3[C@@H]3CCCN(C)C3)c2C)c(O)c1F [Example 20, (R)-2-fluoro-3-methyl-6-(4-methyl-7-(1-methylpiperidin-3-yl)-7H-imidazo[4,5-c]pyridazin-3-yl)phenol] | 84
Cc1c(-c2ccc(C(F)(F)F)cc2O)nnc2c1ncn2[C@H]1CN(C)CC[C@H]1O [Example 11, (3S,4R)-3-(3-(2-hydroxy-4-(trifluoro-methyl)phenyl)-4-methyl-7H-imidazo[4,5-c]pyridazin-7-yl)-1-methylpiperidin-4-ol] | 147
Cc1c(-c2ccc(C(F)(F)F)cc2O)nnc2c1ncn2[C@@H]1CCCN(C2CCC2)C1 [Example 23, (R)-2-(7-(1-cyclobutylpiperidin-3-yl)-4-methyl-7H-imidazo[4,5-c]pyridazin-3-yl)-5-(trifluoromethyl)phenol] | 112
CCN1CCC[C@@H](n2cnc3c(C)c(-c4ccc(C(F)(F)F)cc4OC(F)F)nnc32)C1 [Example 9, (R)-3-(2-(difluoromethoxy)-4-(trifluoromethyl)phenyl)-7-(1-ethylpiperidin-3-yl)-4-methyl-7H-imidazo[4,5-c]pyridazine] | 699
